Reference: US9527812B2, “N-heterocyclic carbene-catalyzed synthesis of 2-aryl indoles” (Northwestern University, priority 2014, dated 2016)

A melting point of 110 to 112 °C was found for `Cc1c(-c2ccccc2)n(C(=O)OC(C)(C)C)c2ccccc12` [4aa, tert-butyl 3-methyl-2-phenyl-1H-indole-1-carboxylate] in this work.
A melting point of 86 to 87 °C was found for `CC(C)(C)OC(=O)n1c(-c2ccc(Cl)cc2)cc2ccccc21` [4b, tert-butyl 2-(4-chlorophenyl)-1H-indole-1-carboxylate] in this work.
A melting point of 88 to 89 °C was found for `CC(C)(C)OC(=O)n1c(-c2ccc(Br)cc2)cc2ccccc21` [4c, tert-butyl 2-(4-bromophenyl)-1H-indole-1-carboxylate] in this work.
A melting point of 108 to 109 °C was found for `CC(C)(C)OC(=O)n1c(-c2ccc(C(F)(F)F)cc2)cc2ccccc21` [4e, tert-butyl 2-(4-(trifluoromethyl)phenyl)-1H-indole-1-carboxylate] in this work.
A melting point of 89 to 90 °C was found for `COc1ccc(-c2cc3ccccc3n2C(=O)OC(C)(C)C)cc1` [4g, tert-butyl 2-(4-methoxyphenyl)-1H-indole-1-carboxylate] in this work.
A melting point of 134 to 135 °C was found for `CC(C)(C)OC(=O)n1c(-c2ccc3ccccc3c2)cc2ccccc21` [4l, tert-butyl 2-(naphthalen-2-yl)-1H-indole-1-carboxylate] in this work.
A melting point of 121 to 122 °C was found for `CC(C)(C)OC(=O)n1c(-c2ccccc2)cc2c(F)cccc21` [4p, tert-butyl 4-fluoro-2-phenyl-1H-indole-1-carboxylate] in this work.
A melting point of 111 to 112 °C was found for `CC(C)(C)OC(=O)n1c(-c2ccccc2)cc2c(Cl)cccc21` [4q, tert-butyl 4-chloro-2-phenyl-1H-indole-1-carboxylate] in this work.
A melting point of 81 to 82 °C was found for `COc1cccc2c1cc(-c1ccccc1)n2C(=O)OC(C)(C)C` [4r, tert-butyl 4-methoxy-2-phenyl-1H-indole-1-carboxylate] in this work.
A melting point of 61 to 62 °C was found for `CC(C)(C)OC(=O)n1c(-c2ccccc2)cc2ccc(Cl)cc21` [4v, tert-butyl 6-chloro-2-phenyl-1H-indole-1-carboxylate] in this work.
A melting point of 54 to 55 °C was found for `CC(C)(C)OC(=O)n1c(-c2ccccc2)cc2ccc(Br)cc21` [4w, tert-butyl 6-bromo-2-phenyl-1H-indole-1-carboxylate] in this work.
A melting point of 104 °C was found for `CC(C)(C)OC(=O)n1c(-c2ccccc2)cc2ccc(C(F)(F)F)cc21` [4x, tert-butyl 2-phenyl-6-(trifluoromethyl)-1H-indole-1-carboxylate] in this work.
A melting point of 62 to 64 °C was found for `Cc1ccc2cc(-c3ccccc3)n(C(=O)OC(C)(C)C)c2c1` [4y, tert-butyl 6-methyl-2-phenyl-1H-indole-1-carboxylate] in this work.
A melting point of 70 to 72 °C was found for `CC(C)(C)OC(=O)n1c(-c2ccccc2)cc2ccccc21` [compound 4, tert-butyl 2-phenyl-1H-indole-1-carboxylate] in this work.
